Columns and labels:
Ubc8 = Ubc8 expression in F9 cells (Northern blot, real time PCR); type: cell-based, murine; details: 1 mM VPA, FIG. 11
Protocol: FIG. 11 (A) F9 cells were treated for indicated times with 1 mM VPA and abundance of Ubc8 mRNA was determined by Northern blot analysis from 5 μg polyA^+ mRNA with a probe drived from the 3′-UTR of the cDNA. GAPDH mRNA was determined as reference. Phosphorimager analysis was performed for quantitative evaluation and relative values normalized for GAPDH are presented below the graph. One of two experiments with similar results is shown. (B) Ubc8 mRNA was also determined by real time PCR assuming an 1.5-fold amplification per cycle. The amplicon was part of the coding sequence of the Ubc8 mRNA. F9 cells were treated for 17 h with 1 mM VPA (V) or 100 nM TSA (T). Results were normalized for GAPDH expression. Average values ± range of duplicate determinations are shown.

HDAC-2 [1] = test: Ubiquitinated HDAC-2 by His6-tagged ubiquitin / Ni2+-NTA agarose precipitation in HEK293T cells; type: cell-based, human; details: VPA 36 h, FIG. 10B
Protocol: FIG. 10: (A) The total amount of high molecular weight poly-ubiquitinated protein was not altered by VPA treatment of cells (left two lanes). The presence of ubiquitinated proteins in anti HDAC-2 immune precipitates is shown in the right part of the panel. Cells had either been left untreated, were exposed to VPA (1.5 mM, 24 h) or the proteasome inhibitor ALLN (5 μM, 24 h) or both. Ubiquitinated proteins in the precipitates were detected by Western blot analysis. For lane N a non-immune serum was used instead of the anti HDAC-2 antibody. (B) The presence of mono- and/or oligo-ubiquitinated HDAC-2 upon VPA treatment of HEK293T cells was determined by ectopic expression of His6-tagged ubiquitin followed by VPA-treatment for 36 h as indicated. The proteasome inhibitor MG-132 was added 4 h prior to analysis to enhance the accumulation of ubiquitinated proteins. Electrophoretic mobility and unaltered presence of non-ubiquitinated HDAC-2 were determined by Westernblot analysis of whole cell extracts (left panel). Ubiquitinated proteins were precipitated with Ni^2+-NTA-agarose and analyzed for presence of ubiquitinated HDAC-2 (middle panel) by Westernblot analysis of precipitates. Anti-HDAC-2 immuno-reactive bands with the expected mobility of mono- or poly-ubiquitinated HDAC-2 are indicated by a bracket.

[2] = test system: splenocytes from healthy mice; test: Apoptosis of cultured normal splenocytes (propidium iodide staining); type: cell-based; details: VPA 1 mM, 48 hours, FIG. 3B
Protocol: FIG. 3: (A) Secondary acute promyelocytic leukemias were induced in mice as described above. Leukemic mice were then treated with placebo (Ctrl), or VPA (400 mg/kg every 12 hours). Mice were sacrificed 48 hours after beginning of treatments, and then leukemic spleens were fixed and either stained for histological examination (hematoxylin-eosyn, left panels), or analyzed for the presence of apoptotic cells (TUNEL assay, right panels). (B) Secondary leukemias were obtained as above. Mice were sacrificed when leukemic invasion of peripheral organs was >75% (spleen). Splenocytes from healthy mice (taken as control, left panel), or from leukemic mice (>75% blasts, right panel) were put in culture and then treated with VPA (1 mM) for 48 hours. At the end of the treatment, apoptosis was measured by propidium iodide staining. The sub-G1 area indicates the hypodiploid DNA peak corresponding to cells with fragmented DNA undergoing apoptosis.

HDAC-2 [3] = test: HDAC-2 pulse labeling and pulse-chase analysis in F9 cells; type: cell-based, murine; details: 1 mM VPA pretreatment 24 h
Protocol: (§1) FIG. 8: Synthesis and degradation rate of HDAC-2 were analyzed by pulse metabolic labeling with ^35S-methionine and pulse-chase analyses. ^35S-labelled HDAC-2 was detected by HDAC-2 specific immune precipitation followed by SDS-PAGE separation and autoradiography. (A) Pulse labeling for 1 h was performed in F9 and HEK293T cells which had been left untreated or were pretreated with 1 mM VPA for 24 h. (B) For pulse chase analysis cells were left untreated or pretreated for 24 h with 1 mM VPA and labeled with ^35S-methionine for an additional hour in the absence or presence of VPA. After removal of ^35S-methionine and addition of non-labeled methionine the elimination of radiolabeled HDAC-2 was followed over a period of 6 h. A pulse chase analysis was also performed in HEK293T cells without VPA pretreatment and addition of VPA (indicated by the (+) row) only at the time when the chase period was started. From HEK293T cell extracts also HDAC-3 was precipitated for reference.

TRAIL = TRAIL expression in Calu-3 cells (quantitative PCR); type: cell-based, human; details: VPA 1 mM, FIG. 4B
Protocol: FIG. 4: (A) Secondary acute promyelocytic leukemias were induced in mice as described above. Leukemic mice or healthy mice (Ctrl) were then treated with placebo (lanes 1, 3), VPA (400 mg/kg every 12 hours), all-trans retinoic acid (a 21-day-release pellet containing 5 mg RA or placebo: lanes 8-9), and VPA plus retinoic acid (lanes 10-11). Mice were sacrificed 18 hours (lanes 4-5), or 36 hours after beginning of treatment (lanes 3, 6-7, 10-11): total RNAs were collected from the spleens (with a >75% invasion of leukemic blasts as assessed by Giemsa staining) and analyzed by RNAse protection assay to check for expression of TRAIL. Faf and GAPDH were used as controls, not affected by these treatments. (B) Calu-3 cells (a human, non-small cell lung cancer derived cell line) were treated with VPA (1 mM) for the indicated times. RNA was extracted and analyzed by quantitative PCR (Perkin-Elmer), using primers specific for TRAIL. GAPDH was used to normalize.

HDAC-2 [4] = test: HDAC-2 protein levels in F9 teratocarcinoma cells (Westernblot); type: cell-based, murine
Protocol: FIG. 6: (A) F9 teratocarcinoma or HEK293T embryonic kidney cells were exposed for indicated times to 1 mM VPA. Protein levels of HDAC-2 and HDACs 1 or 3 for reference (HDAC8; N-CoR and Sin3 as data not shown) were determined by Westernblot analysis. […] (C) The effect of other HDAC inhibitors on the amount of HDAC-2 protein was determined by using TSA (100 nM) in a time course analysis in F9 cells (left panel). The HDAC inhibitors TSA (100 nM), trapoxin (TPX, 10 nM), butyrate (1.5 mM) or MS275 (5 μM) were tested at a single time of exposure in HEK293T cells (right panel).

HDAC-2 mRNA = HDAC-2 mRNA levels in HEK293T cells (Northern blot); type: cell-based, human; details: 1 mM VPA, FIG. 7
Protocol: FIG. 7: F9 cells or HEK 293T cells were treated for indicated times with 1 mM VPA and the levels of HDAC-2 mRNA were determined by Northern blot analysis from 5 μg polyA^+ RNA.

HDAC-2 [5] = test: HDAC-2 pulse labeling and pulse-chase analysis in HEK293T cells; type: cell-based, human
Protocol: as §1

SMILES: CCCC(CCC)C(=O)O [VPA, Valproic acid]
- expression of the gene encoding Ubc8 (Ubc8): inducible by VPA
- gross abundance of ubiquitinated proteins (anti His-tag) (HDAC-2 [1]): not altered
- oligo- and polyubiquitinated HDAC-2 bands in Ni2+-NTA-agarose precipitates (HDAC-2 [1]; MG-132 added 4 h prior to analysis): much more abundant
- apoptosis (propidium iodide, sub-G1) [2]: unable to induce apoptosis of normal splenocytes
- HDAC-2 synthesis rate (35S-methionine pulse labeling) (HDAC-2 [3]; FIG. 8A): No substantial difference in HDAC-2 synthesis rate
- half-life of HDAC-2 (pulse-chase) (HDAC-2 [3]; FIG. 8B): substantially decreased
- TRAIL expression (quantitative PCR, normalized to GAPDH) (TRAIL): strongly induced
- HDAC-2 protein levels relative to untreated cells (HDAC-2 [4]; 1 mM VPA, 24 h, persists up to 48 h, FIG. 6A (F9 and HEK293T, cell line not given)): about 30%
- HDAC-2 protein levels (HDAC-2 [4]; F9 cells, VPA 1 mM, TSA 100 nM up to 48 h): reduced
- HDAC-2 mRNA levels (HDAC-2 mRNA): no response of HDAC-2 mRNA levels
- HDAC-2 synthesis rate (35S-methionine pulse labeling) (HDAC-2 [5]; 1 mM VPA pretreatment 24 h, FIG. 8A): No substantial difference in HDAC-2 synthesis rate
- half-life of HDAC-2 (pulse-chase) (HDAC-2 [5]; 1 mM VPA pretreatment 24 h, FIG. 8B): substantially decreased
- HDAC-2 protein degradation rate (HDAC-2 [5]; VPA added only at the time of chase, FIG. 8B): no effect

— US20130231472A1, “USE OF MOLECULAR MARKERS FOR THE PRECLINICAL PROFILING OF INHIBITORS OF ENZYMES HAVING HISTONE DEACETYLASE ACTIVITY” (priority 2002, published 2013)
